Results from PMC2654246 (The Journal of neuroscience : the official journal of the …, 2009).
Marks after values point to notes of the source that are not given here.

Columns and labels:
[1] = molecular target: αI264Cβγδ nAChR (Mus musculus, UniProt P02716+P04756+P04760, I284C); experiment: Rates of reaction of engineered Cys with MTSEA; type: cell-based; details: MTSEA with ACh (EC80-EC100)
[2] = molecular target: αP272Cβγδ nAChR (Mus musculus, UniProt P02716+P04756+P04760, P292C); experiment: Rates of reaction of engineered Cys with MTSEA; type: cell-based; details: MTSEA with ACh (EC80-EC100)
[3] = molecular target: αS266Cβγδ nAChR (Mus musculus, UniProt P02716+P04756+P04760, S286C); experiment: Rates of reaction of engineered Cys with MTSEA; type: cell-based
[4] = molecular target: αL263Cβγδ nAChR (Mus musculus, UniProt P02716+P04756+P04760+P09690, L283C); experiment: Rates of reaction of engineered Cys with MTSEA; type: cell-based; details: αL263C; MTSEA alone; component not specified, classed slow
[5] = molecular target: αT267Cβγδ nAChR (Mus musculus, UniProt P02716+P04756+P04760, T287C); experiment: Rates of reaction of engineered Cys with MTSEA; type: cell-based; details: MTSEA with ACh (EC80-EC100)
[6] = molecular target: αP265Cβγδ nAChR (Mus musculus, UniProt P02716+P04756+P04760, P285C); experiment: Rates of reaction of engineered Cys with MTSEA; type: cell-based; details: MTSEA with ACh (EC80-EC100)
[7] = molecular target: αS268Cβγδ nAChR (Mus musculus, UniProt P02716+P04756+P04760, S288C); experiment: Effect of MTS reagent application on subsequent ACh induced current; type: cell-based; details: αS268C
[8] = molecular target: αE262Cβγδ nAChR (Mus musculus, UniProt P02716+P04756+P04760, E282C); experiment: Rates of reaction of engineered Cys with MTSEA; type: cell-based; details: MTSEA with ACh (EC80-EC100)
[9] = molecular target: αG275Cβγδ nAChR (Mus musculus, UniProt P02716+P04756+P04760, G295C); experiment: Rates of reaction of engineered Cys with MTSEA; type: cell-based; details: MTSEA with ACh (EC80-EC100)
[10] = molecular target: αI274Cβγδ nAChR (Mus musculus, UniProt P02716+P04756+P04760, I294C); experiment: Rates of reaction of engineered Cys with MTSEA; type: cell-based; details: MTSEA with ACh (EC80-EC100)
[11] = system: nAChR α-subunit single Cys mutants (αβγδ); details: 2 min, αA270C, αL273C, αI274C, αK276C, αY277C
[12] = molecular target: αV271Cβγδ nAChR (Mus musculus, UniProt P02716+P04756+P04760, V291C); experiment: Rates of reaction of engineered Cys with MTSEA; type: cell-based; details: MTSEA with ACh (EC80-EC100)
[13] = molecular target: αS269Cβγδ nAChR (Mus musculus, UniProt P02716+P04756+P04760, S289C); experiment: Effect of MTS reagent application on subsequent ACh induced current; type: cell-based; details: αS269C; MTSES 5 mM, 2 min; ACh EC30-70

Chain of αS268Cβγδ nAChR (P04756 21-457 S288C): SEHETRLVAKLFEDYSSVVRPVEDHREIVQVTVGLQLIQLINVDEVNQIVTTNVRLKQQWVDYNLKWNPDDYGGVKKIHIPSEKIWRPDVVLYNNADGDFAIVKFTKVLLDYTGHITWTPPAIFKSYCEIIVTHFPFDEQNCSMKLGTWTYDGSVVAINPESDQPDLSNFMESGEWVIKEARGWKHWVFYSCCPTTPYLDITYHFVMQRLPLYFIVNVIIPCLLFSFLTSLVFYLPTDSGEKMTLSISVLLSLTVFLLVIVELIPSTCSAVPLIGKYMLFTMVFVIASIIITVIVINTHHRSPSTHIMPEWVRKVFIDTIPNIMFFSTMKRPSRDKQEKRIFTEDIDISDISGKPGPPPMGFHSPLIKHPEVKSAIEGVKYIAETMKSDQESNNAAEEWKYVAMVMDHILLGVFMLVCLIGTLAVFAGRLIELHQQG
Chain of αS268Cβγδ nAChR (P09690 24-501 partner): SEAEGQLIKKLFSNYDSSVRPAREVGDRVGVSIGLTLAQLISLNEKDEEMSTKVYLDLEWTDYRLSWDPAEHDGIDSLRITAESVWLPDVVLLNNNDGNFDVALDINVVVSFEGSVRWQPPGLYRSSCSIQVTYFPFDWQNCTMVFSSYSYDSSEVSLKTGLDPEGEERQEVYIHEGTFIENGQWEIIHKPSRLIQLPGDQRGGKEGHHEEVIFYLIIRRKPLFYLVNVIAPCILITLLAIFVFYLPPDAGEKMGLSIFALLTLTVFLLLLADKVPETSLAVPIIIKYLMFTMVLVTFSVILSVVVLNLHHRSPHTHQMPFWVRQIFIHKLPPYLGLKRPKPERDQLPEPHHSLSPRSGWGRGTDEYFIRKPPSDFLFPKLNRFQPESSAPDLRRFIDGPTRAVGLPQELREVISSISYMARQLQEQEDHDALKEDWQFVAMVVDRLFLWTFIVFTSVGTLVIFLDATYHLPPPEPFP
Chain of αS268Cβγδ nAChR (P04760 23-519): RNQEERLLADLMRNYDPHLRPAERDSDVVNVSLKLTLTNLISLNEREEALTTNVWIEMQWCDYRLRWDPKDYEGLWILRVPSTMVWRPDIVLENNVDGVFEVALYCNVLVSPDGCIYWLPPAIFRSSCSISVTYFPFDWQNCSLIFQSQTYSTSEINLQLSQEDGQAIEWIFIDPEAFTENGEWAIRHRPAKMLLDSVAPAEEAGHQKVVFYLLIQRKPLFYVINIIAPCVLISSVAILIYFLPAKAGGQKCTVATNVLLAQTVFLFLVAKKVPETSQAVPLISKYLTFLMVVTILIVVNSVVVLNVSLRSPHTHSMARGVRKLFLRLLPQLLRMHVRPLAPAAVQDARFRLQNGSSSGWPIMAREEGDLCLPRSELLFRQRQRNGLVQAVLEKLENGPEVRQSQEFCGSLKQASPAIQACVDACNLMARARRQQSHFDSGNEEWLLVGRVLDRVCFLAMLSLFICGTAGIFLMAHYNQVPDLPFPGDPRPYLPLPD
Chain of αS268Cβγδ nAChR (P02716 25-520): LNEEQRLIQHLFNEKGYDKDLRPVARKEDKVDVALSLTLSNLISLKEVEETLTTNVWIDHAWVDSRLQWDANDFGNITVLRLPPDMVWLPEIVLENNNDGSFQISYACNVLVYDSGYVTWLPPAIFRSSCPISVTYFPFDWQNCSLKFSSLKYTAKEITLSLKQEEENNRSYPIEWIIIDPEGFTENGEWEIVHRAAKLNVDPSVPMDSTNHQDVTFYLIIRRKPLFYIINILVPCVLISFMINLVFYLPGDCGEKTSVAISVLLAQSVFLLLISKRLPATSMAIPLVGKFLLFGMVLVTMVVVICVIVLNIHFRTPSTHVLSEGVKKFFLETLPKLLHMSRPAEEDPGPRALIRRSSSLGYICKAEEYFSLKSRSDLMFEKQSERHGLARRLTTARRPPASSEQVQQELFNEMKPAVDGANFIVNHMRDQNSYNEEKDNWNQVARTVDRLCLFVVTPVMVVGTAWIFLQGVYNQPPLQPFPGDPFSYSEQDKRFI
Chain of αS266Cβγδ nAChR (P04756 21-457 S286C): as the sequence (P04756 21-457 S288C) above, with S266C, C268S counted along it
Chain of αS266Cβγδ nAChR (P09690 24-501 partner): as the sequence (P09690 24-501 partner) above
Chain of αS266Cβγδ nAChR (P04760 23-519): as the sequence (P04760 23-519) above
Chain of αS266Cβγδ nAChR (P02716 25-520, stated change not applied): as the sequence (P02716 25-520) above

% increase of subsequent ACh induced current amplitude [13]	% increase of subsequent ACh induced current amplitude ([7]; MTSES 5 mM, 2 min, ACh EC30-70)	SMILES	τ in the presence of ACh, second order reaction rate constant [1]	τ in the presence of ACh, second order reaction rate constant [2]	τ, second order reaction rate constant ([3]; MTSEA applied in the absence of ACh)	τ in the presence of ACh, second order reaction rate constant ([3]; MTSEA with ACh (EC80-EC100))	second-order rate constant [4]	τ in the presence of ACh, second order reaction rate constant [5]	τ in the presence of ACh, second order reaction rate constant [6]	reaction of MTSEA at this position (successive MTSEA then MTSES application) ([7]; MTSEA 2 mM, 2 min followed by MTSES 5 mM, 2 min on the same oocyte)	τ in the presence of ACh, second order reaction rate constant [8]	τ in the presence of ACh, second order reaction rate constant [9]	τ in the presence of ACh, second order reaction rate constant [10]	effect of MTSEA application on ACh induced currents ([11]; MTSEA 2 mM, absence of ACh, αS268C)	τ in the presence of ACh, second order reaction rate constant [12]	effect of MTSES applied after MTSEA on subsequent ACh induced currents ([7]; compared to MTSES applied alone)	effect of MTSES application on ACh induced currents ([11]; MTSES 5 mM)
–	–	CS(=O)(=O)SCCN [MTSEA, methanethiosulfonate ethylammonium]	22.8 ± 6.5 M⁻¹ s⁻¹	426 ± 66* M^-1s^-1	12,200 ± 2,200 M^-1s^-1	6,970 ± 1,800 M^-1s^-1	< 1,000 M^-1s^-1	5,450 ± 86*** M^-1s^-1	3,940 ± 620*** M^-1s^-1	does not react at this position	23,000 ± 2,100** M^-1s^-1	22.2 ± 3.3 M⁻¹ s⁻¹	8.7 ± 2.6*** M^-1s^-1	no effect	398 ± 73*** M^-1s^-1	–	–
177 ± 37%	85 ± 12%	CS(=O)(=O)SCCS(=O)(=O)[O-].[Na+] [MTSES, methanethiosulfonate ethylsulfonate]	–	–	–	–	–	–	–	–	–	–	–	–	–	similarly increased subsequent ACh induced currents	no functional effect
